Results taken from PubChem BioAssay AID248 (DTP/NCI, 2004).
Values joined by “and” are separate entries in the source; they are usually repeats but may differ in a detail not shown here. Identical values can stand only once. Toxic doses and inconclusive results are not listed. No stated cut-off is given here; in the data, active means T/C of 150% or more; inactive means T/C below 125%.

System: L1210 leukemia ip in BDF1 mice, survival T/C
Test: NCI In Vivo Anticancer Drug Screen. Data for tumor model L1210 Leukemia (intraperitoneal) in B6D2F1 (BDF1) mice
Settings: endpoint: mean survival time, higher = longer survival
How it was run: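 Antitumor effect is assessed in tumor-bearing animals. Survival in the compound arm is compared with a vehicle-dosed control arm and expressed as their quotient.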

[1] = dose: 100.0 mg/kg/injection, schedule: Q01DX001 (ip), vehicle: saline
[2] = dose: 200.0 mg/kg/injection, schedule: Q01DX001 (ip), vehicle: saline
[3] = dose: 400.0 mg/kg/injection, schedule: Q01DX001 (ip), vehicle: saline
[4] = dose: 100.0 mg/kg/injection, schedule: Q01DX001 (ip), vehicle: Klucel (hydroxypropylcellulose) (HPC)
[5] = dose: 200.0 mg/kg/injection, schedule: Q01DX001 (ip), vehicle: Klucel (hydroxypropylcellulose) (HPC)
[6] = dose: 25.0 mg/kg/injection, schedule: Q04DX002 (ip), vehicle: Klucel (hydroxypropylcellulose) (HPC)
[7] = dose: 50.0 mg/kg/injection, schedule: Q04DX002 (ip), vehicle: Klucel (hydroxypropylcellulose) (HPC)
[8] = dose: 100.0 mg/kg/injection, schedule: Q04DX002 (ip), vehicle: Klucel (hydroxypropylcellulose) (HPC)
[9] = dose: 100.0 mg/kg/injection, schedule: Q04DX003 (ip), vehicle: saline
[10] = dose: 200.0 mg/kg/injection, schedule: Q04DX003 (ip), vehicle: saline
[11] = dose: 400.0 mg/kg/injection, schedule: Q04DX003 (ip), vehicle: saline
[12] = dose: 200.0 mg/kg/injection, schedule: Q04DX002 (ip), vehicle: Klucel (hydroxypropylcellulose) (HPC)
[13] = dose: 400.0 mg/kg/injection, schedule: Q04DX002 (ip), vehicle: Klucel (hydroxypropylcellulose) (HPC)
[14] = dose: 100.0 mg/kg/injection, schedule: Q01DX009 (ip), vehicle: Klucel (hydroxypropylcellulose) (HPC)
[15] = dose: 100.0 mg/kg/injection, schedule: Q04DX003 (ip), vehicle: Klucel (hydroxypropylcellulose) (HPC)
[16] = dose: 200.0 mg/kg/injection, schedule: Q01DX009 (ip), vehicle: Klucel (hydroxypropylcellulose) (HPC)
[17] = dose: 200.0 mg/kg/injection, schedule: Q04DX003 (ip), vehicle: Klucel (hydroxypropylcellulose) (HPC)
[18] = dose: 400.0 mg/kg/injection, schedule: Q01DX009 (ip), vehicle: Klucel (hydroxypropylcellulose) (HPC)
[19] = dose: 400.0 mg/kg/injection, schedule: Q04DX003 (ip), vehicle: Klucel (hydroxypropylcellulose) (HPC)
[20] = dose: 100.0 mg/kg/injection, schedule: Q04DX003 (ip), vehicle: saline with Tween-80
[21] = dose: 200.0 mg/kg/injection, schedule: Q04DX003 (ip), vehicle: saline with Tween-80
[22] = dose: 400.0 mg/kg/injection, schedule: Q04DX003 (ip), vehicle: saline with Tween-80
[23] = dose: 100.0 mg/kg/injection, schedule: Q01DX001 (ip), vehicle: other
[24] = dose: 100.0 mg/kg/injection, schedule: Q01DX001 (ip), vehicle: carboxymethylcellulose (CMC)
[25] = dose: 200.0 mg/kg/injection, schedule: Q01DX001 (ip), vehicle: carboxymethylcellulose (CMC)
[26] = dose: 400.0 mg/kg/injection, schedule: Q01DX001 (ip), vehicle: carboxymethylcellulose (CMC)

Measured: T/C

CCOC(=O)CC1CCN(C(=O)c2ccccc2)C(Cc2c[nH]c3ccccc23)C1=O (stereo not drawn)
inactive: [1] 95 % of control | [2] 94 % of control | [3] 94 % of control

CCCc1cc2c3c(c(=O)oc2cc1OCCN1CCCC1)CCCC3
inactive: dose: 37.5 mg/kg/injection, schedule: Q01DX001 (ip), vehicle: saline with Tween-80 92 % of control | dose: 37.5 mg/kg/injection, schedule: Q04DX003 (ip), vehicle: saline with Tween-80 96 % of control | dose: 75.0 mg/kg/injection, schedule: Q01DX001 (ip), vehicle: saline with Tween-80 94 % of control | dose: 75.0 mg/kg/injection, schedule: Q04DX003 (ip), vehicle: saline with Tween-80 100 % of control | dose: 150.0 mg/kg/injection, schedule: Q01DX001 (ip), vehicle: saline with Tween-80 100 % of control | dose: 150.0 mg/kg/injection, schedule: Q04DX003 (ip), vehicle: saline with Tween-80 98 % of control

NC(N)=N/C(N)=N\c1nn[nH]n1
inactive: dose: 100.0 mg/kg/injection, schedule: Q01DX001 (ip), vehicle: saline sonified 96 % of control | dose: 100.0 mg/kg/injection, schedule: Q01DX009 (ip), vehicle: saline sonified 91 % of control | dose: 200.0 mg/kg/injection, schedule: Q01DX001 (ip), vehicle: saline sonified 100 % of control | dose: 400.0 mg/kg/injection, schedule: Q01DX001 (ip), vehicle: saline sonified 93 % of control | dose: 400.0 mg/kg/injection, schedule: Q01DX009 (ip), vehicle: saline sonified 92 % of control

Cc1cc(=O)[nH]c(=O)n1Cc1ccccc1
inactive: [4] 117 % of control | [5] 117 % of control | dose: 400.0 mg/kg/injection, schedule: Q01DX001 (ip), vehicle: Klucel (hydroxypropylcellulose) (HPC) 122 % of control

Nc1ccc(Cl)nn1
inactive: [6] 97 % of control | [7] 97 % of control | [8] 100 % of control

O=C(O)CSCc1cc(=O)[nH]c(=O)[nH]1
inactive: [9] 96 % of control | [10] 96 % of control | [11] 98 % of control

Cc1ccc(C(=O)N/N=C/c2ccc(Cl)cc2Cl)cc1
inactive: [8] 100 % of control | [12] 95 % of control | [13] 95 % of control

Clc1ccc(N=Nc2ccccc2)cc1
inactive: [14] 98 % of control | [15] 95 % of control | [16] 91 % of control | [17] 101 % of control | [18] 96 % of control | [19] 105 % of control

Cc1[nH]c(=O)[nH]c(=O)c1CN1CCCCC1
inactive: [20] 100 % of control | [21] 106 % of control | [22] 93 % of control

COC1OC(O)C(NC(=O)C(F)(F)F)CC1O (stereo not drawn)
inactive: dose: 50.0 mg/kg/injection, schedule: Q01DX001 (ip), vehicle: saline 103 % of control | [1] 97 % of control | [2] 103 % of control | [3] 91 % of control

CC(=O)NCC(=O)O
inactive: [4] 113 % of control | [5] 95 % of control | dose: 300.0 mg/kg/injection, schedule: Q01DX001 (ip), vehicle: Klucel (hydroxypropylcellulose) (HPC) 94 % of control

Cc1nc(=O)ccn1Cc1ccccc1
inactive: [9] 101 % of control | [10] 101 % of control | [11] 96 % of control

Cn1c(CCl)nc2c1c(=O)[nH]c(=O)n2C
inactive: [23] 95 % of control

CCOC(=O)c1ccc(NC(=O)Nc2ccc(OC)cc2Cl)cc1
inactive: dose: 100.0 mg/kg/injection, schedule: Q01DX001 (ip), vehicle: saline with Tween-80 96 % of control | dose: 100.0 mg/kg/injection, schedule: Q01DX009 (ip), vehicle: saline with Tween-80 104 % of control | dose: 100.0 mg/kg/injection, schedule: Q04DX002 (ip), vehicle: saline with Tween-80 94 % of control and 90 % of control | [20] 101 % of control | dose: 200.0 mg/kg/injection, schedule: Q01DX001 (ip), vehicle: saline with Tween-80 91 % of control | dose: 200.0 mg/kg/injection, schedule: Q01DX009 (ip), vehicle: saline with Tween-80 104 % of control | dose: 200.0 mg/kg/injection, schedule: Q04DX002 (ip), vehicle: saline with Tween-80 90 % of control and 91 % of control | [21] 97 % of control | dose: 400.0 mg/kg/injection, schedule: Q01DX001 (ip), vehicle: saline with Tween-80 106 % of control | dose: 400.0 mg/kg/injection, schedule: Q01DX009 (ip), vehicle: saline with Tween-80 92 % of control | dose: 400.0 mg/kg/injection, schedule: Q04DX002 (ip), vehicle: saline with Tween-80 94 % of control and 87 % of control | [22] 92 % of control

C=CC1=C(C)C(=O)N/C1=C\c1[nH]c(Cc2[nH]c(/C=C3/NC(=O)C(C(C)SC(C)=O)=C3C)cc2CCC(=O)O)c(CCC(=O)O)c1C (stereo not drawn)
inactive: [8] 101 % of control | [12] 108 % of control | [13] 97 % of control

Cc1ccc(NC(=S)NC(=O)C(C)Oc2ccccc2)cc1Cl (stereo not drawn)
inactive: [14] 94 % of control | [15] 100 % of control | [16] 101 % of control | [17] 101 % of control | [18] 101 % of control | [19] 109 % of control

N#[N+]c1c([O-])[nH]c(=O)[nH]c1=O
inactive: dose: 50.0 mg/kg/injection, schedule: Q01DX009 (ip), vehicle: Klucel (hydroxypropylcellulose) (HPC) 95 % of control | [14] 107 % of control | [16] 88 % of control

O=C(O)CCC(=O)/C=C1/Nc2ccccc2C1=O
inactive: [20] 88 % of control | [21] 90 % of control | [22] 88 % of control

Cc1cc(C)c(S(=O)(=O)Nc2cc(C)ccc2C)c(C)c1
inactive: [14] 100 % of control | [16] 96 % of control | [18] 100 % of control

O=C1c2ccccc2C(=O)C2OC12 (stereo not drawn)
inactive: dose: 3.0 mg/kg/injection, schedule: Q01DX009 (ip), vehicle: Klucel (hydroxypropylcellulose) (HPC) 97 % of control | dose: 6.0 mg/kg/injection, schedule: Q01DX009 (ip), vehicle: Klucel (hydroxypropylcellulose) (HPC) 93 % of control | dose: 12.0 mg/kg/injection, schedule: Q01DX009 (ip), vehicle: Klucel (hydroxypropylcellulose) (HPC) 97 % of control | dose: 12.5 mg/kg/injection, schedule: Q04DX002 (ip), vehicle: Klucel (hydroxypropylcellulose) (HPC) 102 % of control | [6] 94 % of control | dose: 50.0 mg/kg/injection, schedule: Q01DX001 (ip), vehicle: carboxymethylcellulose (CMC) 98 % of control | [7] 97 % of control | [24] 109 % of control | [25] 98 % of control | [26] 104 % of control

CN(C)C(=O)C(=O)c1c[nH]c2ccccc12
inactive: [8] 118 % of control | [12] 109 % of control | [13] 109 % of control

CCCCOC(=O)c1nc[nH]c1[N+](=O)[O-]
inactive: [23] 93 % of control | dose: 200.0 mg/kg/injection, schedule: Q01DX001 (ip), vehicle: other 101 % of control | dose: 400.0 mg/kg/injection, schedule: Q01DX001 (ip), vehicle: other 101 % of control

CC1(C)N=C(N)N=C(N)N1c1cccc(OCCOc2ccc(NC(=O)/C=C/C(=O)O)cc2)c1
inactive: [24] 101 % of control | [25] 97 % of control | [26] 94 % of control

O=C1c2ccccc2-c2cc([N+](=O)[O-])c(NC(=O)C(Cl)Cl)cc21
inactive: [24] 96 % of control | [25] 107 % of control | [26] 102 % of control
